Literature values, collected in US6617125B2, “Compositions for enhanced catalyzed reporter deposition” (PerkinElmer Life Sciences, Inc., priority 2001, dated 2003).

Columns and labels:
HRP [1] = details: substrate guaiacol; Whitaker and Tappel 1962
HRP [2] = molecular target: T1, HRP (Armoracia rusticana, UniProt P00433)
T1 sequence (P00433 31-338 limits assumed): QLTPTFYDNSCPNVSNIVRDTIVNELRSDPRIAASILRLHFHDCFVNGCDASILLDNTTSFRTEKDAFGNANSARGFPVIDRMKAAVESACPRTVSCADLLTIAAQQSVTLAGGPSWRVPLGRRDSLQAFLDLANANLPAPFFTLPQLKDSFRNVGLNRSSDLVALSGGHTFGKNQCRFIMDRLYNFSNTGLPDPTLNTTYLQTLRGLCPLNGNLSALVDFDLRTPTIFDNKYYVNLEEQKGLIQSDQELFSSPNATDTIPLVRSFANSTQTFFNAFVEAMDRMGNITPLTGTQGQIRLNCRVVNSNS

Row | Structure (SMILES) | enhancement of the oxidation of guaiacol (HRP [1]) | effect on the oxidation of 4-chloro-1-naphthol (HRP [2]; substrate 4-chloro-1-naphthol, de Jong et al. 1985) | enhancement of the oxidation of p-phenylenediamine-pyrocatechol (HRP [2]; substrate combination p-phenylenediamine-pyrocatechol, de Jong et al. 1985) | enhancement of the oxidation of diaminobenzidine (HRP [2]; substrate diaminobenzidine, de Jong et al. 1985) | effect on substrates which form covalently depositable products (HRP [2]; substrates which form covalently depositable products)
1 | [Cl-].[Na+] [NaCl] | enhance | – | – | – | –
2 | c1c[nH]cn1 [imidazole] | – | no effect | two | approximately four | no effect
3 | O=S(=O)([O-])[O-].[Na+].[Na+] [Na2SO4] | enhance | – | – | – | –
4 | [Cl-].[K+] [KCl] | enhance | – | – | – | –
